Source: paper PMC10111423, “Antimalarial Imidazopyridines Incorporating an Intramolecular Hydrogen Bonding Motif: Medicinal Chemistry and Mechanistic Studies” (ACS Infectious Diseases, 2023)

Legend:
[1] = system: Chinese hamster ovarian (CHO) cell line; experiment: In vitro cytotoxicity MTT assay; type: cell-based; settings: CHO vs PfNF54
Description: (§1) In vitro cytotoxicity was performed on the Chinese Hamster Ovarian cell line by measuring cellular growth and survival calorimetrically through the MTT assay.[29],[30] The formation of tetrazolium salt was used as a measure of chemosensitivity and growth. (Details of this assay is described in the Supporting Information.) page 19: et al, 1993). The test samples were prepared to a 10 mmol/L stock solution in 100% DMSO. Samples were tested as a suspension if not completely dissolved. Further dilutions to the desired starting concentration were freshly prepared in growth media on each occasion of the experiment. The standard antimalarial drugs chloroquine (CQ) and artesunate (Arts) were used as the reference drug in all experiments. A full dose-response was performed for all compounds […] value). Test samples were tested at a starting concentration of 6mmol/L, which was then serially diluted 2-fold in growth medium to generate the tested concentration range. The same dilution technique was used for all samples. CQ and Arts were tested from a starting concentration of 1μg/mL. The highest concentration of solvent to which the parasites were exposed was <0.1% and has no measurable effect on the parasite viability (data not shown). The assay plate was incubated at 37 °C for 72h in a sealed gas chamber under 3% O2 and 4% CO2 with the balance being N2. After 72h, the wells in the assay plate were gently resuspended, and 15μL from each well was transferred to a duplicate plate containing 100μL of Malstat reagent and 25μL of nitroblue tetrazolium solution in each well. Plates were left to develop for 20 minutes in the dark and then absorbance of each well was quantified using a spectrophotometer at 620nm wavelength. The remaining population of parasites at each concentration of the test compound was determined by comparing the absorbance of each well to the absorbance of a well containing the drug-free control. Survival was plotted against concentration and the IC50 values were obtained using a non-linear dose-response curve fitting analysis via the Dotmatics software platform.2 In vitro Cytotoxicity Assay In vitro cytotoxicity was performed on the Chinese Hamster Ovarian cell line by measuring […] diphenyltetrazolium bromide (MTT) assay.3,4 The formation of tetrazolium salt was used as a measure of chemosensitivity and growth. 2 mg/mL stock solutions of the test compounds were prepared in DMSO and stored at -20 °C until required. The stock solution was subsequently diluted with the assay medium to make up an initial concentration of 100 μg/mL. The initial 100 μg/mL solution is serially diluted 10- S19 page 20: fold to attain six assay concentrations of 100-0.001 μg/mL. […] was used as the reference compound in this assay. The highest concentration of DMSO, which was used as the negative control, had no measurable effect on cell viability. After 44 hours of exposure of the cells to the test compounds, a solution of MTT was added. This was followed by an additional 4 hours of incubation at 37 °C. The assay plates were centrifuged, medium removed, and DMSO was added to the crystals. The amount of formazan was ascertained by measuring the absorbance at 540 nm. GraphPad Prism software was then used to generate IC50 values through a non-linear dose-response curve analysis. β-Hematin Inhibition Assay 20 mM stock solutions of controls and test compounds were made in DMSO. A solution […] was added to every well in columns 1-11 of a 96-well plate. 140 μL of water and 40 μL of 305.5 μM NP-40 were added to column 12 to mediate the formation of beta-hematin. 20 μL of test compounds (20 mM) were added to column 12 and 100 μL of this solution serially diluted to column 2, leaving column 1 blank (0 μM of test compound). 178.8 μL aliquot of hematin stock was suspended in 20 ml of a 1 M acetate buffer at pH 4.9. 100 μL of this hematin suspension was then added into each well, and the plates were incubated for ±5 hrs at 37°C. […]

[2] = In vitro cytotoxicity MTT assay; type: cell-based, Chinese hamster; settings: Chinese hamster, Chinese hamster ovarian (CHO) cells; MTT assay
Description: as §1

[3] = system: chloroquine-sensitive (NF54) strain of P. falciparum; experiment: In vitro asexual blood-stage antiplasmodium pLDH assay, NF54 strain; type: cell-based; settings: Plasmodium falciparum, NF54; pLDH, 72 h, n ≥ 3; read-out: In vitro antiplasmodium activity IC50 PfNF54 strain
Description: Compounds were screened against multi-drug-resistant (K1) and sensitive (NF54) strains of P. falciparum in vitro using a parasite lactate dehydrogenase assay (pLDH) (the method is described fully in the Supporting Information). […]
In vitro Asexual Blood Stage Antiplasmodium Assay
Parasites were cultured as per the method of Trager and Jensen,1 with modifications. IC50 values were determined using parasite lactate dehydrogenase as a marker for survival (Makler […]
et al, 1993). The test samples were prepared to a 10 mmol/L stock solution in 100% DMSO.
Samples were tested as a suspension if not completely dissolved. Further dilutions to the desired starting concentration were freshly prepared in growth media on each occasion of the experiment. The standard antimalarial drugs chloroquine (CQ) and artesunate (Arts) were used as the reference drug in all experiments. A full dose-response was performed for all compounds in a 96-well plate to determine the concentration inhibiting 50% of parasite growth (IC50– value). Test samples were tested at a starting concentration of 6mmol/L, which was then serially diluted 2-fold in growth medium to generate the tested concentration range. The same dilution technique was used for all samples. CQ and Arts were tested from a starting concentration of 1µg/mL. The highest concentration of solvent to which the parasites were exposed was <0.1% and has no measurable effect on the parasite viability (data not shown).
The assay plate was incubated at 37 °C for 72h in a sealed gas chamber under 3% O2 and 4% CO2 with the balance being N2. After 72h, the wells in the assay plate were gently resuspended, and 15µL from each well was transferred to a duplicate plate containing 100µL of Malstat reagent and 25µL of nitroblue tetrazolium solution in each well. Plates were left to develop for 20 minutes in the dark and then absorbance of each well was quantified using a spectrophotometer at 620nm wavelength.
The remaining population of parasites at each concentration of the test compound was determined by comparing the absorbance of each well to the absorbance of a well containing […]
the drug-free control. […]
The initial 100 µg/mL solution is serially diluted 10-

Row | SMILES | IC50 [3] [nM] | SI (selectivity index) = IC50 CHO/IC50 PfNF54 [1] | IC50 at 44 h [2] [µM]
1 | CCN(CCNc1cc2[nH]c(C3CC3)nc2cn1)Cc1ccc(Cl)cc1O [Compound 5, 5-Chloro-2-(((2-((2-cyclopropyl-1H-imidazo[4,5-c]pyridin-6-yl)amino)ethyl)(ethyl)amino)methyl)phenol] | 390 | 119.08 | 46.4
2 | CCN(CCNc1cc2[nH]c(C3(C)CC3)nc2cn1)Cc1ccc(Cl)cc1O [Compound 6, 5-Chloro-2-((ethyl(2-((2-(1-methylcyclopropyl)-1H-imidazo[4,5-c]pyridin-6-yl)amino)ethyl)amino)methyl)phenol] | 490 | >102.04 | > 50
3 | CCN(CCNc1cc2[nH]c(C3CCCC3)nc2cn1)Cc1ccc(Cl)cc1O [Compound 1, 5-Chloro-2-(((2-((2-cyclopentyl-1H-imidazo[4,5-c]pyridin-6-yl)amino)ethyl)(ethyl)amino)methyl)phenol] | 340 | 79.76 | 27.1

More lines, main results first:

Row | IC50 [3] [nM] | SMILES | SI (selectivity index) = IC50 CHO/IC50 PfNF54 [1] | IC50 at 44 h [2] [µM]
4 | 80 | CCN(CCNc1cc2[nH]c(-c3cccc(C(F)(F)F)c3)nc2cn1)Cc1ccc(Cl)cc1O [Compound 14, 5-Chloro-2-((ethyl(2-((2-(3-(trifluoromethyl)phenyl)-1H-imidazo[4,5-c]pyridin-6-yl)amino)ethyl)amino)methyl)phenol] | 466.25 | 37.3
5 | 380 | CCN(CCNc1cc2[nH]c(-c3ccc(C(F)(F)F)nc3)nc2cn1)Cc1ccc(Cl)cc1O [Compound 19, 5-Chloro-2-((ethyl(2-((2-(6-(trifluoromethyl)pyridin-3-yl)-1H-imidazo[4,5-c]pyridin-6-yl)amino)ethyl)amino)methyl)phenol] | >131.58 | > 50
